Data: US8415342B2, “Besifloxacin ophthalmic composition for the treatment or control of infection” (Bausch & Lomb Incorporated, priority 2008, dated 2013)
Converted amounts (≈) assume the structure as drawn. Like-named read-outs stand apart in the source and are kept apart here.

Experiments:
[1] = test system: Pathogens Associated With Bacterial Conjunctivitis; assay: Integrated besifloxacin MIC data from preclinical (nonclinical) studies (Table 8); format: cell-based; details: for MIC50: read-out: MIC50
[2] = test system: genetically concordant pathogens of Visit 2 or Visit 3; assay: Resistance development: PFGE and MIC testing of concordant isolate pairs from baseline and follow-up visits; format: cell-based
Protocol: PFGE testing was performed per standard procedures.
Isolate pairs from eyes with the same species at or above threshold at both baseline and follow-up visits were evaluated by Pulsed Field Gel Electrophoresis (PFGE) analysis to (i) distinguish new infections from recurrence and (ii) determine if any microbial eradication failures were correlated with antimicrobial resistance development during the study period.

[3] = Moraxella species, N 30, agar dilution
[4] = Proteus mirabilis Quinolone-S, N 98
[5] = Serratia marcescens Quinolone-S, N 98

N[C@@H]1CCCCN(c2c(F)cc3c(=O)c(C(=O)O)cn(C4CC4)c3c2Cl)C1 [Besifloxacin, (R)-(+)-(3-amino-2,3,4,5,6,7-hexahydro-1H-azepin-1-yl)-8-chloro-1-cyclopropyl-6-fluoro-1,4,-dihydro-4-oxo-3-quinolinecarboxylic acid] was tested, and the “MIC Range” value [1, 3] was “≦0.06-0.13 μg/mL”, the MIC50 [1, 3] was at most 0.06 µg/mL and the MIC90 ([1]; Moraxella species, N 30, agar dilution, read-out: MIC90) was 0.13 µg/mL (≈ 0.33 µM). The “MIC Range” value ([1]; Morganella morganii Quinolone-S, N 39) was 0.03 to 2 µg/mL, the MIC50 ([1]; Morganella morganii, Morganella morganii Quinolone-R, N 12) was 4 µg/mL (≈ 10.2 µM) and the MIC90 ([1]; Morganella morganii, Morganella morganii Quinolone-R, N 12, read-out: MIC90) was 8 µg/mL (≈ 20.3 µM). The MIC90 ([1]; Morganella morganii, Morganella morganii Quinolone-S, N 39, read-out: MIC90) was 1 µg/mL (≈ 2.54 µM), the “MIC Range” value ([1]; Neisseria gonorrhoeae, N 103) was 0.004 to 2 µg/mL and the MIC50 ([1]; Neisseria gonorrhoeae, N 103) was 0.015 µg/mL (≈ 0.0381 µM). The MIC90 ([1]; Neisseria gonorrhoeae, N 103, read-out: MIC90) was 0.015 µg/mL (≈ 0.0381 µM), the “MIC Range” value ([1]; Propionibacterium acnes, N 21, agar dilution) was 0.12 to 0.25 µg/mL and the “MIC Range” value [1, 4] was 0.25 to 4 µg/mL. For the same compound, the MIC50 [1, 4] was 0.5 µg/mL (≈ 1.27 µM), the MIC90 ([1]; Proteus mirabilis, Proteus mirabilis Quinolone-S, N 98, read-out: MIC90) was 1 µg/mL (≈ 2.54 µM) and the “MIC Range” value ([1]; Pseudomonas aeruginosa Quinolone-S, N 49) was 0.5 to 4 µg/mL. The MIC50 ([1]; Pseudomonas aeruginosa, Pseudomonas aeruginosa Quinolone-R, N 51) was over 8 µg/mL, the MIC90 ([1]; Pseudomonas aeruginosa, Pseudomonas aeruginosa Quinolone-R, N 51, read-out: MIC90) was over 8 µg/mL and the MIC50 ([1]; Pseudomonas aeruginosa, Pseudomonas aeruginosa Quinolone-S, N 49) was 1 µg/mL (≈ 2.54 µM). For the same compound, the MIC90 ([1]; Pseudomonas aeruginosa, Pseudomonas aeruginosa Quinolone-S, N 49, read-out: MIC90) was 2 µg/mL (≈ 5.08 µM), the MIC90 ([1]; S. aureus, value used for PK/PD ratios of Study 424) was “^aMIC90: S. aureus = 1 μg/mL” and the “MIC Range” value [1, 5] was 0.25 to 2 µg/mL. The MIC50 [1, 5] was 1 µg/mL (≈ 2.54 µM), the MIC90 ([1]; Serratia marcescens, Serratia marcescens Quinolone-S, N 98, read-out: MIC90) was 2 µg/mL (≈ 5.08 µM) and the “MIC Range” value ([1]; Staphylococcus aureus MRSA-QR, N 73) was 0.25 to 8 µg/mL. For the same compound, the “MIC Range” value ([1]; Staphylococcus aureus MSSA-QR, N 12) was 0.03 to 4 µg/mL, the MIC50 ([1]; Staphylococcus aureus, MRSA, Staphylococcus aureus MRSA-QR, N 73) was 1 µg/mL (≈ 2.54 µM) and the MIC50 ([1]; Staphylococcus aureus, MRSA, Staphylococcus aureus MRSA-QS, N 36) was 0.03 µg/mL (≈ 0.0762 µM). The MIC50 ([1]; Staphylococcus aureus, MSSA, Staphylococcus aureus MSSA-QR, N 12) was 0.25 µg/mL (≈ 0.635 µM), the MIC90 ([1]; Staphylococcus aureus, MSSA, Staphylococcus aureus MSSA-QR, N 12, read-out: MIC90) was 4 µg/mL (≈ 10.2 µM) and the MIC50 ([1]; Staphylococcus aureus, MSSA, Staphylococcus aureus MSSA-QS, N 80) was 0.03 µg/mL (≈ 0.0762 µM). For the same compound, the MIC90 ([1]; Staphylococcus aureus, S. aureus, value used for PK/PD ratios of Study 424, read-out: MIC90) was 1 µg/mL, the “MIC Range” value ([1]; Staphylococcus epidermidis MRSE-QR, N 32) was 0.25 to 8 µg/mL and the “MIC Range” value ([1]; Staphylococcus epidermidis MSSE-QR, N 5) was 0.25 to 1 µg/mL. For the same compound, the “MIC Range” value ([1]; Staphylococcus epidermidis MSSE-QS, N 39) was 0.015 to 0.06 µg/mL, the MIC50 ([1]; Staphylococcus epidermidis, MRSE, Staphylococcus epidermidis MRSE-QR, N 32) was 2 µg/mL (≈ 5.08 µM) and the MIC50 ([1]; Staphylococcus epidermidis, MRSE, Staphylococcus epidermidis MRSE-QS, N 23) was 0.03 µg/mL (≈ 0.0762 µM). The MIC50 ([1]; Staphylococcus epidermidis, Staphylococcus epidermidis MSSE-QR, N 5) was 0.5 µg/mL (≈ 1.27 µM), the “MIC Range” value ([1]; Staphylococcus hominis Quinolone-R, N 35) was 0.125 to 2 µg/mL and the “MIC Range” value ([1]; Staphylococcus hominis Quinolone-S, N 15) was 0.015 to 0.06 µg/mL. For the same compound, the MIC50 ([1]; Staphylococcus hominis, Staphylococcus hominis Quinolone-S, N 15) was 0.03 µg/mL (≈ 0.0762 µM), the MIC90 ([1]; Staphylococcus hominis, Staphylococcus hominis Quinolone-S, N 15, read-out: MIC90) was 0.06 µg/mL (≈ 0.152 µM) and the “MIC Range” value ([1]; Staphylococcus lugdunensis Quinolone-R, N 5) was 0.125 to 2 µg/mL. For the same compound, the “MIC Range” value ([1]; Staphylococcus lugdunensis Quinolone-S, N 10) was 0.015 to 0.06 µg/mL, the MIC50 ([1]; Staphylococcus lugdunensis, Staphylococcus lugdunensis Quinolone-R, N 5) was 0.5 µg/mL (≈ 1.27 µM) and the MIC90 ([1]; Staphylococcus lugdunensis, Staphylococcus lugdunensis Quinolone-R, N 5, read-out: MIC90) was 2 µg/mL (≈ 5.08 µM). The MIC50 ([1]; Staphylococcus lugdunensis, Staphylococcus lugdunensis Quinolone-S, N 10) was 0.03 µg/mL (≈ 0.0762 µM), the MIC90 ([1]; Staphylococcus lugdunensis, Staphylococcus lugdunensis Quinolone-S, N 10, read-out: MIC90) was 0.06 µg/mL (≈ 0.152 µM) and the MIC50 ([1]; Streptococcus mitis, Streptococcus mitis group, N 90) was 0.06 µg/mL (≈ 0.152 µM). The MIC90 ([1]; Streptococcus mitis, Streptococcus mitis group, N 90, read-out: MIC90) was 0.12 µg/mL (≈ 0.305 µM), the “MIC Range” value ([1]; Streptococcus oralis, N 22) was 0.03 to 2 µg/mL and the MIC50 ([1]; Streptococcus oralis, N 22) was 0.06 µg/mL (≈ 0.152 µM). For the same compound, the MIC90 ([1]; Streptococcus oralis, N 22, read-out: MIC90) was 0.12 µg/mL (≈ 0.305 µM), the “MIC Range” value ([1]; Streptococcus pneumoniae Penicillin-S, N 123) was 0.015 to 1 µg/mL and the MIC50 ([1]; Streptococcus pneumoniae, Streptococcus pneumoniae Penicillin-I, N 28) was 0.12 µg/mL (≈ 0.305 µM). The MIC90 ([1]; Streptococcus pneumoniae, Streptococcus pneumoniae Penicillin-I, N 28, read-out: MIC90) was 0.12 µg/mL (≈ 0.305 µM), the MIC50 ([1]; Streptococcus pneumoniae, Streptococcus pneumoniae Penicillin-R, N 61) was 0.12 µg/mL (≈ 0.305 µM) and the MIC90 ([1]; Streptococcus pneumoniae, Streptococcus pneumoniae Penicillin-R, N 61, read-out: MIC90) was 0.12 µg/mL (≈ 0.305 µM). The MIC50 ([1]; Streptococcus pneumoniae, Streptococcus pneumoniae Penicillin-S, N 123) was 0.12 µg/mL (≈ 0.305 µM), the MIC90 ([1]; Streptococcus pneumoniae, Streptococcus pneumoniae Penicillin-S, N 123, read-out: MIC90) was 0.12 µg/mL (≈ 0.305 µM) and the MIC50 ([1]; Streptococcus pneumoniae, Streptococcus pneumoniae Quinolone-R, N 23) was 1 µg/mL (≈ 2.54 µM). For the same compound, the MIC90 ([1]; Streptococcus pneumoniae, Streptococcus pneumoniae Quinolone-R, N 23, read-out: MIC90) was 4 µg/mL (≈ 10.2 µM), the MIC50 ([1]; Streptococcus pyogenes, N 201) was 0.06 µg/mL (≈ 0.152 µM) and the MIC90 ([1]; Streptococcus pyogenes, N 201, read-out: MIC90) was 0.12 µg/mL (≈ 0.305 µM). For the same compound, the “MIC Range” value ([1]; Streptococcus salivarius, N 2) was 0.06 µg/mL (≈ 0.152 µM), the “increase of MIC of Visit 2 or Visit 3 isolates versus baseline” value (shortened to “increase”) ([2]; Study 373, 47 genetically concordant isolate pairs) was at most 2 fold and the “increase” value ([2]; Study 433, 122 genetically concordant isolate pairs) was at most 2 fold. For the same compound, the “increase” value ([2]; Study 434, 65 genetically concordant isolate pairs) was at most 2 fold.
